Experimental data from PubChem BioAssay (NCI).
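A five-concentration, 48-hour dose response in 96-well plates underlies each endpoint, interpolated linearly between surrounding concentrations. TGI is the concentration that stops growth completely.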

Experiments:
Test in all cases: NCI anticancer screen, dose series, 48 h
786-0 renal = tested on: 786-0 renal
A498 renal = tested on: A498 renal
A549 NSCLC = tested on: A549 NSCLC
ACHN renal = tested on: ACHN renal
BT-549 breast = tested on: BT-549 breast
CAKI-1 renal = tested on: CAKI-1 renal
CCRF-CEM leukemia = tested on: CCRF-CEM leukemia
COLO 205 colon = tested on: COLO 205 colon
DU-145 prostate = tested on: DU-145 prostate
EKVX NSCLC = tested on: EKVX NSCLC
HCT-116 colon = tested on: HCT-116 colon
HCT-15 colon = tested on: HCT-15 colon
HL-60(TB) leukemia = tested on: HL-60(TB) leukemia
HOP-62 NSCLC = tested on: HOP-62 NSCLC
HOP-92 NSCLC = tested on: HOP-92 NSCLC
HS 578T breast = tested on: HS 578T breast
HT29 colon = tested on: HT29 colon
IGROV1 ovarian = tested on: IGROV1 ovarian
K-562 leukemia = tested on: K-562 leukemia
KM12 colon = tested on: KM12 colon
LOX IMVI melanoma = tested on: LOX IMVI melanoma
M14 melanoma = tested on: M14 melanoma
MALME-3M melanoma = tested on: MALME-3M melanoma
MCF7 breast = tested on: MCF7 breast
MDA-MB-231 breast = tested on: MDA-MB-231 breast
MDA-MB-435 = tested on: MDA-MB-435
MDA-N = tested on: MDA-N
MOLT-4 leukemia = tested on: MOLT-4 leukemia
NCI-H226 lung = tested on: NCI-H226 lung
NCI-H23 lung = tested on: NCI-H23 lung
NCI-H460 lung = tested on: NCI-H460 lung
NCI-H522 lung = tested on: NCI-H522 lung
NCI/ADR-RES ovarian = tested on: NCI/ADR-RES ovarian
OVCAR-3 ovarian = tested on: OVCAR-3 ovarian
OVCAR-4 ovarian = tested on: OVCAR-4 ovarian
OVCAR-5 ovarian = tested on: OVCAR-5 ovarian
OVCAR-8 ovarian = tested on: OVCAR-8 ovarian
PC-3 prostate = tested on: PC-3 prostate
RPMI-8226 leukemia = tested on: RPMI-8226 leukemia
RXF 393 renal = tested on: RXF 393 renal
SF-295 CNS = tested on: SF-295 CNS
SF-539 CNS = tested on: SF-539 CNS
SK-MEL-2 melanoma = tested on: SK-MEL-2 melanoma
SK-MEL-28 melanoma = tested on: SK-MEL-28 melanoma
SK-MEL-5 melanoma = tested on: SK-MEL-5 melanoma
SK-OV-3 ovarian = tested on: SK-OV-3 ovarian
SN12C renal = tested on: SN12C renal
SNB-19 CNS = tested on: SNB-19 CNS
SNB-75 CNS = tested on: SNB-75 CNS
SW-620 colon = tested on: SW-620 colon
T-47D breast = tested on: T-47D breast
TK-10 renal = tested on: TK-10 renal
U251 CNS = tested on: U251 CNS
UACC-257 melanoma = tested on: UACC-257 melanoma
UO-31 renal = tested on: UO-31 renal
HCC-2998 colon = tested on: HCC-2998 colon
UACC-62 melanoma = tested on: UACC-62 melanoma

## c1ccc(/N=N/Nc2ccc(-c3nc4ccccc4[nH]3)cc2)nc1
786-0 renal
  TGI: 27.5 µM
A498 renal
  TGI: > 100 µM
A549 NSCLC
  TGI: 36.4 µM
ACHN renal
  TGI: 34.2 µM
BT-549 breast
  TGI: > 100 µM
CAKI-1 renal
  TGI: 61.3 µM
CCRF-CEM leukemia
  TGI: 9.79 µM
COLO 205 colon
  TGI: > 100 µM
DU-145 prostate
  TGI: 27.7 µM
EKVX NSCLC
  TGI: 52.8 µM
HCT-116 colon
  TGI: 19.7 µM
HCT-15 colon
  TGI: 69.9 µM
HL-60(TB) leukemia
  TGI: > 100 µM
HOP-62 NSCLC
  TGI: 30.2 µM
HOP-92 NSCLC
  TGI: 40.5 µM
HS 578T breast
  TGI: 43 µM
HT29 colon
  TGI: 45.2 µM
IGROV1 ovarian
  TGI: 28 µM
K-562 leukemia
  TGI: 31.8 µM
KM12 colon
  TGI: 30.7 µM
LOX IMVI melanoma
  TGI: 43.7 µM
M14 melanoma
  TGI: > 100 µM
MALME-3M melanoma
  TGI: 29.2 µM
MCF7 breast
  TGI: 23.4 µM
MDA-MB-231 breast
  TGI: 25.1 µM
MDA-MB-435
  TGI: 45.7 µM
MDA-N
  TGI: 34.7 µM
MOLT-4 leukemia
  TGI: 25.4 µM
NCI-H226 lung
  TGI: 65.4 µM
NCI-H23 lung
  TGI: 95.8 µM
NCI-H460 lung
  TGI: 31.6 µM
NCI-H522 lung
  TGI: 33.9 µM
NCI/ADR-RES ovarian
  TGI: > 100 µM
OVCAR-3 ovarian
  TGI: 28.2 µM
OVCAR-4 ovarian
  TGI: 35.8 µM
OVCAR-5 ovarian
  TGI: 84.1 µM
OVCAR-8 ovarian
  TGI: 47.2 µM
PC-3 prostate
  TGI: 47.2 µM
RPMI-8226 leukemia
  TGI: 11.6 µM
RXF 393 renal
  TGI: 32.5 µM
SF-295 CNS
  TGI: 35.9 µM
SF-539 CNS
  TGI: 31.3 µM
SK-MEL-2 melanoma
  TGI: 62.5 µM
SK-MEL-28 melanoma
  TGI: 38.7 µM
SK-MEL-5 melanoma
  TGI: > 100 µM
SK-OV-3 ovarian
  TGI: 27.9 µM
SN12C renal
  TGI: 35.8 µM
SNB-19 CNS
  TGI: 44 µM
SNB-75 CNS
  TGI: 40.5 µM
SW-620 colon
  TGI: 71.5 µM
T-47D breast
  TGI: 26 µM
TK-10 renal
  TGI: 35.6 µM
U251 CNS
  TGI: 30.1 µM
UACC-257 melanoma
  TGI: 62.6 µM
UO-31 renal
  TGI: 49.3 µM

## c1cncc(-c2ncc3cccnc3n2)c1
786-0 renal
  TGI: > 100 µM
A498 renal
  TGI: > 100 µM
A549 NSCLC
  TGI: > 100 µM
ACHN renal
  TGI: > 100 µM
BT-549 breast
  TGI: > 100 µM
CAKI-1 renal
  TGI: > 100 µM
CCRF-CEM leukemia
  TGI: > 100 µM
COLO 205 colon
  TGI: > 100 µM
DU-145 prostate
  TGI: > 100 µM
EKVX NSCLC
  TGI: > 100 µM
HCC-2998 colon
  TGI: > 100 µM
HCT-116 colon
  TGI: > 100 µM
HCT-15 colon
  TGI: > 100 µM
HL-60(TB) leukemia
  TGI: > 100 µM
HOP-62 NSCLC
  TGI: > 100 µM
HOP-92 NSCLC
  TGI: > 100 µM
HS 578T breast
  TGI: > 100 µM
HT29 colon
  TGI: > 100 µM
IGROV1 ovarian
  TGI: > 100 µM
K-562 leukemia
  TGI: > 100 µM
KM12 colon
  TGI: > 100 µM
LOX IMVI melanoma
  TGI: > 100 µM
MALME-3M melanoma
  TGI: > 100 µM
MCF7 breast
  TGI: > 100 µM
MDA-MB-231 breast
  TGI: > 100 µM
MDA-N
  TGI: > 100 µM
MOLT-4 leukemia
  TGI: > 100 µM
NCI-H226 lung
  TGI: > 100 µM
NCI-H23 lung
  TGI: > 100 µM
NCI-H460 lung
  TGI: > 100 µM
NCI-H522 lung
  TGI: > 100 µM
NCI/ADR-RES ovarian
  TGI: > 100 µM
OVCAR-3 ovarian
  TGI: > 100 µM
OVCAR-4 ovarian
  TGI: > 100 µM
OVCAR-5 ovarian
  TGI: > 100 µM
OVCAR-8 ovarian
  TGI: > 100 µM
PC-3 prostate
  TGI: > 100 µM
RPMI-8226 leukemia
  TGI: > 100 µM
RXF 393 renal
  TGI: > 100 µM
SF-295 CNS
  TGI: > 100 µM
SF-539 CNS
  TGI: > 100 µM
SK-MEL-2 melanoma
  TGI: > 100 µM
SK-MEL-5 melanoma
  TGI: > 100 µM
SK-OV-3 ovarian
  TGI: > 100 µM
SN12C renal
  TGI: > 100 µM
SNB-19 CNS
  TGI: > 100 µM
SNB-75 CNS
  TGI: > 100 µM
SW-620 colon
  TGI: > 100 µM
TK-10 renal
  TGI: > 100 µM
U251 CNS
  TGI: > 100 µM
UACC-257 melanoma
  TGI: > 100 µM
UACC-62 melanoma
  TGI: > 100 µM
UO-31 renal
  TGI: > 100 µM
